Results: paper PMC3750255, “Inhibition of Mycoplasma pneumoniae growth by FDA-approved anticancer and antiviral nucleoside and nucleobase analogs” (BMC Microbiology, 2013)
Converted amounts (≈) assume the structure as drawn.

T1: TK in Mpn extracts (Mycoplasmoides pneumoniae, UniProt P75070)
T1 construct: endogenous in cells; host or cells: Mycoplasma pneumoniae M129 total protein extract
T1 sequence (P75070 1-191): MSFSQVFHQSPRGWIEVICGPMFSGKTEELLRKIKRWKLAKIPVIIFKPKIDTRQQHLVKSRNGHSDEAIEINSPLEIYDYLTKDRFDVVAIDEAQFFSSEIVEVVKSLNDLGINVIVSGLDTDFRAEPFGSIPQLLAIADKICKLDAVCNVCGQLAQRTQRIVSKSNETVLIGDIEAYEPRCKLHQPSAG

T2: human TK2 (Homo sapiens, UniProt O00142)
T2 construct: made in house
T2 sequence (O00142 34-265): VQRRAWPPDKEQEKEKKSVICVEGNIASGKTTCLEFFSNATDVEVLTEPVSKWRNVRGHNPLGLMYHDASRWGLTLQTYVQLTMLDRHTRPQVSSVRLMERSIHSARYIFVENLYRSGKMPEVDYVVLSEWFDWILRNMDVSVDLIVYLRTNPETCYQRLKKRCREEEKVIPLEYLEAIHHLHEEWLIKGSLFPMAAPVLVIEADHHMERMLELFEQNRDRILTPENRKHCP

T3: human TK1 (Homo sapiens, UniProt P04183)
T3 construct: made in house
T3 sequence (P04183 1-234): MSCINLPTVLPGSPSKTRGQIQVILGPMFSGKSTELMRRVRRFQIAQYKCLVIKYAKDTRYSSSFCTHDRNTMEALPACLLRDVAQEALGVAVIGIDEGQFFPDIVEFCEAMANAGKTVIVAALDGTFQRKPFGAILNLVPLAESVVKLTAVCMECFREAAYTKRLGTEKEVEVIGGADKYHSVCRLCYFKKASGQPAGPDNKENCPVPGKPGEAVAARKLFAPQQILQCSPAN

T4: Ureaplasma TK (Ureaplasma parvum serovar 3, UniProt Q9PPP5)
T4 construct: made in house
T4 sequence (Q9PPP5 1-223): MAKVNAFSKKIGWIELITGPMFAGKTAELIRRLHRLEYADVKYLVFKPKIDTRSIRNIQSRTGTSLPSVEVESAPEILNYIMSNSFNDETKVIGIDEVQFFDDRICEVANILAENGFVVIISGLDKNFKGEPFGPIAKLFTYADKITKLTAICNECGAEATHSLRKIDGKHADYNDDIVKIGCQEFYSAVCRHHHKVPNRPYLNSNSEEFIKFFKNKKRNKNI

B1: Mpn HPRT (Mycoplasmoides pneumoniae M129) (protein)
chain: MGIKSIIIDQKQVEAGCNAALKWCNEHFAGKQVIVLGILKGCIPFLGKLISQFTFDLQLDFVAVASYHGGSRQQEAPKIVLDMSHDPKGKDILLIEDIVDSGRSIKLVLDLLHTRKAKSVILVSFIEKLKPREADIKVDYSCFKNQDEFLVGFGLDYQGFYRNLPYVGVFDPEDN

Assays:
Mpn wild type cells = experiment: Uptake and metabolism of tritium labelled natural nucleoside and nucleobases in the presence of analogs; type: cell-based, Mycoplasma pneumoniae
Method: The cells were harvested and analyzed essentially as described. Analogs used were dipyridamole, 6-thioguanine (6-TG), trifluorothymidine (TFT), gemcitabine (dFdC) and 5-fluorodeoxyuridine (5FdU). Total uptake is the percent of radioactivity recovered in the cells divided by total radioactivity added to the growth medium. Percent of acid insoluble (radioactivity found in DNA and RNA) was also calculated. These experiments were done more than three times and data are given as mean ± SD.

[1] = test system: M. pneumoniae wild type (laboratory strain M129); experiment: Mpn growth inhibition in 96-well plates (growth index A450/A560), wild type strain; type: cell-based, Mycoplasma pneumoniae; conditions: Mycoplasmoides pneumoniae, read-out: Wild type MIC
Method: (§1) A series dilution of each compound in Mycoplasma growth medium was added to Mpn cultures in 96-well plates. The plates were sealed and incubated at 37°C. Mpn growth was monitored by using growth index value e.g. the ratio of absorbance at 450 nm and 560 nm of the culture medium. Thirty nucleoside and nucleobase analogs and a nucleoside transporter inhibitor were included, and two Mpn strains, wild type and a thyA mutant (lacking TS activity), were used.
(§2) Nucleoside and nucleobase analogs were dissolved in dimethyl sulfoxide (DMSO) as stock solutions and diluted with Mpn culture medium to the desired concentration immediately prior to use.
(§3) Mpn laboratory strain M129 wild type and a thyA mutant strain [31] were used in this study. Mpn was cultured at 37°C in a CO2 incubator using 75 cm^2 tissue culture flasks containing 50 ml Hayflick’s medium, and harvested at day 4 when the medium color change was observed. The cells were harvested and the pellet was resuspended in 6 ml fresh medium and the cfu/ml was determined by serial dilution (10-fold) and plating on broth agar plate. Colonies was counted and cfu/ml was calculated.
(§4) Inhibition studies were performed in 96-well plates containing 200 μl Mpn culture (approximately 10^6 cfu ml^-1) in Hayflick’s medium and 200 μl each compound in series dilutions (2-fold) with the growth medium, with three to four replicas. The plates were sealed with clear adhesive sheets and incubated at 37°C incubator. Absorbance ratio at 450 nm and 560 nm was used as Mpn growth index, which was measured daily, and by visual detection for at least 8 days, as previously described. […] The MICs (minimal inhibitory concentration required to inhibit Mpn growth to 90%) were determined as the lowest concentration at which the growth index was ≈ 10% of the control values (at the time when the control culture medium color turned yellow), essentially as described.

TK in Mpn extracts = target: T1, TK in Mpn extracts; experiment: Inhibition of dT phosphorylation in Mpn protein extracts; type: biochemical
Method: Both TFT and 5FdU are substrates of Mycoplasma and human TKs, as described above and earlier studies.
(§5) Thymidine kinase assay was performed using tritium labelled thymidine ([^3H]-dT) as substrate and various concentrations of the inhibitors essentially as previously described to determine the IC50 values of TFT and 5FdU.

[2] = test system: M. pneumoniae thyA mutant (lacking TS activity); experiment: microbe, parasite or virus in culture; type: cell-based, Mycoplasma pneumoniae; conditions: Mycoplasmoides pneumoniae, read-out: thyA mutant MIC
Method: as §1, §2, §3, §4

human TK2 = target: T2, human TK2; experiment: Thymidine kinase inhibition with [3H]-dT as substrate; type: biochemical; conditions: 10 μM tritium labelled thymidine
Method: as §5

human TK1 = target: T3, human TK1; experiment: as above; type: biochemical; conditions: 10 μM tritium labelled thymidine
Method: as §5

Ureaplasma TK = target: T4, Ureaplasma TK; experiment: as above; type: biochemical; conditions: 10 μM tritium labelled thymidine
Method: as §5

[3] = substrate: O=c1[nH]cnc2nc[nH]c12; experiment: purified protein, by the assay type; conditions: other: as substrate of Mpn HPRT, Michaelis-Menten; pH 7.5; 37.0 °C
[4] = 10 μM analog, 70 hours, 37°C, radioactivity in cells / total added
[5] = 10 μM analog, 70 hours, acid insoluble fraction / total in cells

Molecule | Stimulation of [3H]-dT uptake (Mpn wild type cells; 10 μM analog versus control) [fold] | [3H]-Ade Total uptake (Mpn wild type cells; [4]) [%] | [3H]-Gua Total uptake (Mpn wild type cells; [4]) [%] | [3H]-Hx Total uptake (Mpn wild type cells; [4]) [%] | [3H]-Ura Total uptake (Mpn wild type cells; [4]) [%] | [3H]-dT Total uptake (Mpn wild type cells; [4]) [%] | [3H]-Ade Incorporation (Mpn wild type cells; [5]) [%] | [3H]-Gua Incorporation (Mpn wild type cells; [5]) [%] | [3H]-Hx Incorporation (Mpn wild type cells; [5]) [%] | [3H]-Ura Incorporation (Mpn wild type cells; [5]) [%] | [3H]-dT Incorporation (Mpn wild type cells; [5]) [%] | MIC [1] [µg/mL] | IC50 (TK in Mpn extracts) [µM] | MIC [2] [µg/mL] | IC50 (human TK2) [µM] | IC50 (human TK1) [µM] | IC50 (Ureaplasma TK) [µM] | Km [3] [µM]
O=c1[nH]c(=O)n([C@H]2C[C@H](O)[C@@H](CO)O2)cc1F [5-fluorodeoxyuridine (5FdU), 5-fluorodeoxyuridine] | 2 | 0.36±0.1 | 0.16±0.03 | 0.006± 0.001 | 0.087±0.003 | 14.7±0.2 | 42±2 | 87±3 | 76±4 | 19±7 | 96.0±0.5 | 7.8 (≈ 31.7 µM) | 47.9 ± 1.2 | 15.6 (≈ 63.4 µM) | 158 ± 2.7 | 75.9 ± 2.6 | 1000 ± 13.3 | –
B1 | – | – | – | – | – | – | – | – | – | – | – | – | – | – | – | – | – | 100.1 ± 6.5
